A short description of data set [1]: Selectivity index, ratio of CC50 for human Huh-7 cells to EC50 for DENV-2 New Guinea C infected in human Huh-7 cells. The format is toxicity, cell-based. The note with it: read-out: Ratio CC50/EC50.
For a further data set, the system named is Hepatitis C virus. As to the kind of experiment: Antiviral activity against HCV-1 infected in human LucUbiNeo-ET cells assessed as reduction in viral replication incubated for 2 days by luminometry. The conditions noted are these: genotype 1, LucUbiNeo-ET, 48 h. Type of data set: functional, organism-based, Hepacivirus hominis.
Another data set relates to dengue virus type 2. The data set can be described thus: Antiviral activity against DENV-2 New Guinea C infected in human Huh-7 cells assessed as reduction in viral replication. The format is functional, organism-based.
Data set [2] in a line: Selectivity index, ratio of CC50 for hepatoma cells (unknown origin) to EC50 for HCV-1 infected in hepatoma cells (unknown origin). Type of data set: toxicity, cell-based. The note with it: read-out: Ratio CC50/EC50.
The test system of data set [3] is Japanese encephalitis virus. The data set can be described thus: Antiviral activity against JEV SA14-14-2 infected in hamster BHK-21 cells assessed as reduction in viral replication by plaque formation assay. Type of data set: functional, organism-based. The conditions noted are these: SA14-14-2, BHK-21.
The nature of data set [4]: Selectivity index, ratio of CC50 for human Huh-7 cells to EC50 for WNV infected in human Huh-7 cells. Type of data set: toxicity, cell-based. The conditions noted are these: read-out: Ratio CC50/EC50.
Data set [5] is described as follows: Cytotoxicity against PBMC (unknown origin) assessed as reduction in cell viability. The format is toxicity, cell-based.
Data set [6] can be described thus: Selectivity index, ratio of CC50 for PBMC (unknown origin) to EC50 for HIV-1 NL4-3 infected in PBMC (unknown origin). Type of data set: toxicity. The conditions noted are these: read-out: Ratio CC50/EC50.
The next data set relates to West Nile virus. The data set can be described thus: Antiviral activity against WNV infected in human Huh-7 cells assessed as reduction in viral replication. The format is functional, organism-based.
Data set [7] is described as follows: Cytotoxicity against hamster BHK-21 cells assessed as reduction in cell viability at MOI of 0.01 incubated for 48 hrs by plaque formation assay. The format is toxicity, cell-based, Mesocricetus auratus.
Data set [8] can be described thus: Cytotoxicity against human LucUbiNeo-ET cells assessed as reduction in cell viability by MTT assay. The format is functional.
For data set [9], the system named is Human immunodeficiency virus 1. The data set can be described thus: Antiviral activity against HIV-1 NL4-3 infected in PBMC (unknown origin) assessed as reduction in viral replication. The format is functional, organism-based. The conditions noted are these: Human immunodeficiency virus 1, NL4-3, PBMC.
Data set [10] is described as follows: Half life in rat administered intravenously. The note with it: in vivo, route iv. Type of data set: ADME.
Data set [11] in a line: Selectivity index, ratio of CC50 for human LucUbiNeo-ET cells to EC50 for HCV-1 infected in human LucUbiNeo-ET cells. The format is toxicity, cell-based. The note with it: read-out: Ratio CC50/EC50.
Data set [12] in a line: Selectivity index, ratio of CC50 for hamster BHK-21 cells to EC50 for JEV SA14-14-2 infected in hamster BHK-21 cells. Type of data set: toxicity, cell-based. The note with it: read-out: Ratio CC50/EC50.

We go through one molecule from ChEMBL document CHEMBL5214928, “DEAD-Box Helicase DDX3X as a Host Target against Emerging Viruses: New Insights for Medicinal Chemical Approaches” (J Med Chem, 2022).

Consider `CCCCc1cn(-c2ccc(NC(=O)Nc3ccccc3C)cc2)nn1`, for which the selectivity ratio in data set [1] was 78; in data set [2] it was over 200; in [4], over 12; in data set [6], 91; in [11], 51; in data set [12], over 2.5. The EC50 in the data set with Hepatitis C virus was found to be 0.97 µM; with dengue virus type 2, 2.55 µM; in [3], 20 µM; in the data set on West Nile virus it was 16.5 µM; in [9] it was 1.1 µM. The CC50 in data set [5] was over 100 µM; in data set [8], 49.8 µM. The CC50 at 48 h in [7] was over 50 µM. Moreover, in [10], the half-life was 3 h.
